Results reported in patent publication US20100184815A1 (priority 2008, published 2010).

How the values were obtained:
Type in all cases: cell-based
Gal-4 hPPARα = biological target: T1, Gal-4 hPPARα (Homo sapiens, UniProt Q07869); test: Gal4-hPPARα transient transfection reporter assay in Cos cells; conditions: luciferase reporter, 24 hours with compound, scale 1-5, read-out: Gal-4 hPPAR α EC50 (scaled number)
T1 construct: Plasmids pGal4-hPPARα, pGal4-hPPARγ, pGal4-hPPARδ and pG5-TK-pGL3 were constructed as previously described by Staels, Bart, et al., Nature 1998 Jun; 25
T1 sequence (Q07869 200-468 limits assumed): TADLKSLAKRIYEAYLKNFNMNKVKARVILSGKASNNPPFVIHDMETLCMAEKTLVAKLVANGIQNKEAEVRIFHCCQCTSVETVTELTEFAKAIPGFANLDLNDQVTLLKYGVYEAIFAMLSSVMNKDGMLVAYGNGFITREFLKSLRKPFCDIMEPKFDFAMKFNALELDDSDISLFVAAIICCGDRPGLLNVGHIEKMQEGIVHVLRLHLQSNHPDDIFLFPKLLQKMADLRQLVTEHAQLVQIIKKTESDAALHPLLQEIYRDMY
Summary of the method: (§1)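 Cos cells transiently co-transfected with Gal4-hPPAR expression plasmid, pG5-TK-pGL3 luciferase reporter and β-galactosidase control, then treated 24 h with increasing compound concentrations in DMEM containing 0.2% FCS. Luciferase normalised to β-galactosidase; EC50 from curve fit, at least three experiments.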

Gal-4 hPPARγ = biological target: T2, Gal-4 hPPARγ (Homo sapiens, UniProt P37231); test: Gal4-hPPARγ transient transfection reporter assay in Cos cells; conditions: luciferase reporter, 24 hours with compound, scale 1-5, read-out: Gal-4 hPPAR γ EC50 (scaled number)
T2 construct: Plasmids pGal4-hPPARα, pGal4-hPPARγ, pGal4-hPPARδ and pG5-TK-pGL3 were constructed as previously described by Staels, Bart, et al., Nature 1998 Jun; 25
T2 sequence (P37231 238-505 limits assumed): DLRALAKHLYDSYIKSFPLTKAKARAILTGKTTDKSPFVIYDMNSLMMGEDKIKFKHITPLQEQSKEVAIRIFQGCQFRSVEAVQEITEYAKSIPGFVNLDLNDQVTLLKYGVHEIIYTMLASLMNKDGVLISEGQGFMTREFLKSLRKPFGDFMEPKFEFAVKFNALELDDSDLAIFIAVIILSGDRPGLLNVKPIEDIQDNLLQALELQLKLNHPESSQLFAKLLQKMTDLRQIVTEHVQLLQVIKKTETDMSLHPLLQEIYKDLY
Summary of the method: as §1

Full Length hPPARα = biological target: T3, Full Length hPPARα (Homo sapiens, UniProt Q07869); test: Full length hPPARα transfection assay; conditions: full length receptor; read-out: Full Length hPPAR α EC50 (scaled number)
T3 construct: Full Length; expressed in transfected cells; host or cells: Cos cells
T3 sequence (Q07869 1-468): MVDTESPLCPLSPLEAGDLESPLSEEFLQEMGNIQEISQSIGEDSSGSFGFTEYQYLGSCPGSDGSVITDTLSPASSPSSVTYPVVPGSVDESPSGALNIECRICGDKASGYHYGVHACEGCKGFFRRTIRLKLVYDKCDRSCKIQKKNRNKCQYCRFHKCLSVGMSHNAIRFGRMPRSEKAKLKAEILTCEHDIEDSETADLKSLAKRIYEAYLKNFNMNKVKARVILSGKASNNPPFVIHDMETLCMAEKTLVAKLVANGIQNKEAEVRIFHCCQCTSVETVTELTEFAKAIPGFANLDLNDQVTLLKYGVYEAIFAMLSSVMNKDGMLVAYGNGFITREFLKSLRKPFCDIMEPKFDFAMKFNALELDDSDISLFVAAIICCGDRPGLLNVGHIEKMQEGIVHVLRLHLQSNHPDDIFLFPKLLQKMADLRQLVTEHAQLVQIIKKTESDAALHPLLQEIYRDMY
Experimental: (§2) Transient transfection assays. Cos cells were seeded in 60-mm dishes at a density of 5.5×10^5 cells/dish in Dulbecco's modified Eagle's medium (DMEM) supplemented with 10% fetal calf serum (FCS) and incubated at 37° C. for 24 hours before transfection. Cells were transfected in Opti-MEM (Gibco; Invitrogen, Carlsbad, Calif.) without FCS for 3 hours at 37° C., using polyethylenimine, with reporter and expression plasmids. The plasmid pBluescript (Stratagene, La Jolla, Calif.) was used as carrier DNA to set the final amount of DNA to 5.5 μg/dish. The pCMV-b-galactosidase expression plasmid was cotransfected as a control for transfection efficiency. Transfection was stopped by the addition of DMEM supplemented with 10% FCS, and cells were then incubated at 37° C. After 16 hours, cells were trypsinized and seeded in 96-well plates at the density of 2×10^4 cells/well and incubated for 6 hours in 10% FCS-containing DMEM. Cells were then incubated for 24 hours in DMEM containing 0.2% FCS and increasing concentrations of the compound tested or vehicle (DMSO). At the end of the experiment, cells were washed once with ice-cold PBS, lysed and the luciferase and b-galactosidase assays were performed in a luminometer and spectrophotomer. Transfection efficiencies were normalized with the b-galactosidase activity assay. Half-maximal effective concentration (EC50) was estimated using Prism software (GraphPad). All transfection experiments were performed at least three times.
(§3) In the following tables, proprietary compound EC50 values for hPPAR α, β, δ and γ are shown. The EC50 value is the concentration of a drug that induces a response halfway between the baseline and maximum, and is commonly used as a measure of drug potency. EC50 values are reported on a scale of 1 through 5, wherein the value scale is defined for each receptor as follows: […]

Full Length hPPARγ = biological target: T4, Full Length hPPARγ (Homo sapiens, UniProt P37231); test: Full length hPPARγ transfection assay; conditions: full length receptor; scale 1-5; read-out: Full Length hPPAR γ EC50 (scaled number)
T4 construct: Full Length; expressed in transfected cells; host or cells: Cos cells
T4 sequence (P37231 1-505): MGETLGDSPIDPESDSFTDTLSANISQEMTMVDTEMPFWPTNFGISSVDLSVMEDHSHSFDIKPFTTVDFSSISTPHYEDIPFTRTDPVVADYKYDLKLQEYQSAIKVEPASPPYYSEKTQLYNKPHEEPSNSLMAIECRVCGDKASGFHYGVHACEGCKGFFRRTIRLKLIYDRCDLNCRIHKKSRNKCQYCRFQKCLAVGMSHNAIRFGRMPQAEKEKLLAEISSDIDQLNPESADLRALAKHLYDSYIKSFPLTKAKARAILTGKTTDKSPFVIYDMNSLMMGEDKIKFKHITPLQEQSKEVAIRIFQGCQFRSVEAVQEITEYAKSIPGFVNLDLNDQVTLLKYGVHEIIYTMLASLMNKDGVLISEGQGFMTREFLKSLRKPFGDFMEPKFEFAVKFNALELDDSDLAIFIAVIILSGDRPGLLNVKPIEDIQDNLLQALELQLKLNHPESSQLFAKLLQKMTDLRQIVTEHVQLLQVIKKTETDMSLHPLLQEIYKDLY
Experimental: as §2, §3

Row | Structure (SMILES) | EC50 (Gal-4 hPPARα) | EC50 (Gal-4 hPPARγ) | EC50 (Full Length hPPARα) | EC50 (Full Length hPPARγ)
1 | CCCCCCn1c(COC(=O)c2ccc(SC(C)(C)C(=O)O)cc2)nn(Cc2ccc(C)cc2)c1=O [Compound 160, 2-(4-(((4-hexyl-1-(4-methylbenzyl)-5-oxo-4,5-dihydro-1H-1,2,4-triazol-3-yl)methoxy)carbonyl)phenylthio)-2-methylpropanoic acid] | 1 to 50 nM | 51 to 200 nM | < 1 nM | 201 to 999 nM
2 | CCCCCCCn1c(COC(=O)c2ccc(OC(C)(C)C(=O)O)cc2)nn(Cc2ccc(C(C)(C)C)cc2)c1=O [Compound 190, 2-(4-(((1-(4-tert-butylbenzyl)-4-heptyl-5-oxo-4,5-dihydro-1H-1,2,4-triazol-3-yl)methoxy)carbonyl)phenoxy)-2-methylpropanoic acid] | 1 to 50 nM | > 1000 nM | < 1 nM | –
3 | CCCCCCCn1c(COC(=O)c2ccc(OC(C)(C)C(=O)O)cc2)nn(Cc2ccc(C)cc2)c1=O [Compound 192, 2-(4-(((4-heptyl-1-(4-methylbenzyl)-5-oxo-4,5-dihydro-1H-1,2,4-triazol-3-yl)methoxy)carbonyl)phenoxy)-2-methylpropanoic acid] | 1 to 50 nM | > 1000 nM | < 1 nM | –
4 | CCCCCCn1c(COC(=O)c2ccc(OC(C)(C)C(=O)O)cc2)nn(Cc2ccc(C)cc2)c1=O [Compound 151, 2-(4-(((4-hexyl-1-(4-methylbenzyl)-5-oxo-4,5-dihydro-1H-1,2,4-triazol-3-yl)methoxy)carbonyl)phenoxy)-2-methylpropanoic acid] | 1 to 50 nM | > 1000 nM | < 1 nM | –
5 | CCCn1c(COC(=O)c2ccc(OC(C)(C)C(=O)O)cc2)nn(Cc2ccc(C(C)(C)C)cc2)c1=O [Compound 150, 2-(4-(((1-(4-tert-butylbenzyl)-5-oxo-4-propyl-4,5-dihydro-1H-1,2,4-triazol-3-yl)methoxy)carbonyl)phenoxy)-2-methylpropanoic acid] | 1 to 50 nM | > 1000 nM | 1 to 50 nM | –
6 | CCCCCCCCn1c(COC(=O)c2ccc(OC(C)(C)C(=O)O)cc2)nn(Cc2ccc(C)cc2)c1=O [Compound 152, 2-methyl-2-(4-(((1-(4-methylbenzyl)-4-octyl-5-oxo-4,5-dihydro-1H-1,2,4-triazol-3-yl)methoxy)carbonyl)phenoxy)propanoic acid] | 51 to 200 nM | > 1000 nM | < 1 nM | –
7 | CCCn1c(COC(=O)c2ccc(SC(C)(C)C(=O)O)cc2)nn(Cc2ccc(C(C)(C)C)cc2)c1=O [Compound 159, 2-(4-(((1-(4-tert-butylbenzyl)-5-oxo-4-propyl-4,5-dihydro-1H-1,2,4-triazol-3-yl)methoxy)carbonyl)phenylthio)-2-methylpropanoic acid] | 1 to 50 nM | > 1000 nM | 1 to 50 nM | –
8 | CCCCCCn1c(COC(=O)c2ccc(OC(C)(C)C(=O)O)cc2)nn(Cc2ccc(C(C)(C)C)cc2)c1=O [Compound 188, 2-(4-(((1-(4-tert-butylbenzyl)-4-hexyl-5-oxo-4,5-dihydro-1H-1,2,4-triazol-3-yl)methoxy)carbonyl)phenoxy)-2-methylpropanoic acid] | 1 to 50 nM | > 1000 nM | < 1 nM | –

The remaining lines, values ahead:

Row | EC50 (Gal-4 hPPARα) | EC50 (Gal-4 hPPARγ) | EC50 (Full Length hPPARα) | EC50 (Full Length hPPARγ) | Structure (SMILES)
9 | 201 to 999 nM | > 1000 nM | – | – | CC(C)(Sc1ccc(C(=O)OCCc2cn(Cc3ccc(C(F)(F)F)cc3)nn2)cc1)C(=O)O [Compound 91, 2-methyl-2-(4-((2-(1-(4-(trifluoromethyl)benzyl)-1H-1,2,3-triazol-4-yl)ethoxy)carbonyl)phenylthio)propanoic acid]
10 | 1 to 50 nM | > 1000 nM | 1 to 50 nM | – | Cc1ccc(Cn2cc(COC(=O)c3ccc(SC(C)(C)C(=O)O)cc3)nn2)cc1 [Compound 60, 2-methyl-2-(4-(((1-(4-methylbenzyl)-1H-1,2,3-triazol-4-yl)methoxy)carbonyl)phenylthio)propanoic acid]
11 | 51 to 200 nM | > 1000 nM | – | – | CCCc1nn(Cc2ccc(C(F)(F)F)cc2)cc1COC(=O)c1ccc(SC(C)(C)C(=O)O)cc1 [Compound 12, 2-methyl-2-(4-(((3-propyl-1-(4-(trifluoromethyl)benzyl)-1H-pyrazol-4-yl)methoxy)carbonyl)phenylthio)propanoic acid]
12 | 1 to 50 nM | > 1000 nM | – | – | Cc1ccc(Cn2cc([C@@H](C)OC(=O)c3ccc(SC(C)(C)C(=O)O)cc3)nn2)cc1 [Compound 87, (R)-2-methyl-2-(4-((1-(1-(4-methylbenzyl)-1H-1,2,3-triazol-4-yl)ethoxy)carbonyl)phenylthio)propanoic acid]
13 | 51 to 200 nM | > 1000 nM | – | – | COC(c1ccc(Cn2cc(COC(=O)c3ccc(SC(C)(C)C(=O)O)cc3)nn2)cc1)(C(F)(F)F)C(F)(F)F [Compound 75, 2-(4-(((1-(4-(1,1,1,3,3,3-hexafluoro-2-methoxypropan-2-yl)benzyl)-1H-1,2,3-triazol-4-yl)methoxy)carbonyl)phenylthio)-2-methylpropanoic acid]
14 | 1 to 50 nM | > 1000 nM | < 1 nM | – | CC(C)(Sc1ccc(C(=O)OCc2cn(Cc3ccc(C(F)(F)F)cc3)nn2)cc1)C(=O)O [Compound 67, 2-methyl-2-(4-(((1-(4-(trifluoromethyl)benzyl)-1H-1,2,3-triazol-4-yl)methoxy)carbonyl)phenylthio)propanoic acid]
15 | 1 to 50 nM | > 1000 nM | – | – | CC(C)(Sc1ccc(C(=O)OCc2cn(Cc3ccc(C(C)(C)C)cc3)nn2)cc1)C(=O)O [Compound 69, 2-(4-(((1-(4-tert-butylbenzyl)-1H-1,2,3-triazol-4-yl)methoxy)carbonyl)phenylthio)-2-methylpropanoic acid]
16 | 51 to 200 nM | > 1000 nM | < 1 nM | – | Cc1ccc(Cn2cc(COC(=O)c3ccc(SC(C)(C)C(=O)O)cc3)cn2)cc1 [Compound 3, 2-methyl-2-(4-(((1-(4-methylbenzyl)-1H-pyrazol-4-yl)methoxy)carbonyl)phenylthio)propanoic acid]
